From patent US6719976B1, “Peptide-based immunotherapeutic agent for treating allergic diseases” (Meiji Milk Products Co., Ltd., priority 1996, dated 2004)

Legend:
Format in all cases: cell-based, human
[1] = tested on: T cell line of each patient specifically recognizing Cry j 1 or Cry j 2; test: T cell line proliferation response to overlapping peptides ([3H] thymidine uptake); conditions: mean stimulation index multiplied by frequency of appearance; T cell lines of 18 patients; 2 μM peptide
Description: Peripheral lymphocytes from 18 patients with cedar pollinosis were stimulated by cedar pollen allergen Cry j 1 or Cry j 2to establish the T cell line of each patient capable of specifically recognizing the respective allergen.
A mixture of 5×10^4 cells of the autologous B cell line treated with mitomycin C, 2 μM of an overlapping peptide, and 2×10^4 cells of the T cell line was incubated for 2 days in RPMI-1640 medium supplemented with 0.2 ml of 15% serum on a 96-well culture plate. After 0.5 μCi [^3H] thymidine was added to the medium, incubation was continued for a further 18 hours. After the cells were harvested on a glass filter using a cell harvester, the level of [^3H] thymidine taken up into the cells was determined with a liquid scintillation counter. If the stimulation index is 2 or more, we consider that the added peptide is recognized as an antigenic peptide. The stimulation index means a value obtained by dividing the level of [^3H] thymidine taken up into the cells when the peptide was added by the level of [^3H] thymidine taken up into the cells when no peptide was added.
The HLA class II type is considered to vary in every patient. It is thus assumed that a T cell epitope to be recognized would vary depending on the HLA class II type. For this reason, the antigenic peptide that the patients recognized was mapped for the individual patient. […] On the allergen molecule, there are both regions that can be readily recognized and regions that can hardly be recognized, as a T cell epitope, depending on individuals. Moreover, since the proliferation rate of T cells varies depending on a T cell epitope, the epitope map alone makes it difficult to determine what antigenic peptide should be chosen to design the multi-epitope peptide.

[2] = tested on: T cell clones that specifically recognize Cry j 1 or Cry j 2; test: Identifying T cell epitope peptide recognized by T cell clone; conditions: 2 μM overlapping peptide; clones from patients
Excerpt: Two patients, Patient B (PB) and Patient J (PJ), who recognize Peptide Nos. 43 and 22 showing a high positivity index in Cry j 1 and three patients, who recognize Peptide Nos. 14, 38, 48, and 69 showing a high positivity index in Cry j 2 were selected from the eighteen patients with cedar pollinosis. Peripheral lymphocytes from these patients with cedar pollinosis were stimulated by Cry j 1 or Cry j 2 to establish T cell clones capable of recognizing Cry j 1 or Cry j 2. The types of HLA class I and class II molecules of the four patients are shown below.
Thirty-five T cell clones in total that specifically recognize Cry j 1 were established from the peripheral lymphocytes derived from PB, and 14 similar T cell clones from PJ. Likewise, 31 T cell clones, 10 T cell clones, and 17 T cell clones in total that specifically recognize Cry j 2 were established from the peripheral lymphocytes derived from PB, PC and PR, respectively. […] A mixture of 5×10^4 cells of the autologous B cell line previously treated with mitomycin C, 2 μM of an overlapping peptide, and 2×10^4 cells of the T cell clone was incubated for 2 days in RPMI-1640 medium supplemented with 0.2 ml of 15% serum on a 96-well micro culture plate. […] After the cells were harvested on a glass filter using a cell harvester, the level of [^3H] thymidine taken up into the cells was determined using a liquid scintillation counter. […]

HLA class II molecules = test: Identifying the HLA class II restriction molecules (transfected mouse L-cells or haplotype-matched B cell line as antigen-presenting cells); conditions: 2 μM peptide
Description: HLA class II restriction molecules can be identified using the T cell clones whose restriction molecules were identified at the HLA class II locus level and, as antigen-presenting cells, mouse L-cells transfected with each type for DR and B cell line having the same haplotype for DQ or DP.
A mixture of 5×10^4 mouse L cells previously treated with mitomycin C of the B cell line coincident in haplotype; 2 μM of an overlapping peptide; 3 μg/ml of anti-DR, -DQ or -DP monoclonal antibody (manufactured by Becton-Dickinson Inc.); and 2×10^4 cells of the T cell clone was incubated for 2 days in RPMI-1640 medium supplemented with 0.2 ml of 15% serum on a 96-well micro culture plate. After 0.5 μCi [^3H] thymidine was added to the medium, incubation was continued for a further 18 hours. After the cells were harvested on a glass filter using a cell harvester, the level of [^3H] thymidine taken up into the cells was determined using a liquid scintillation counter.

T cell clones = test: Recognizing the T cell epitopes in the multi-epitope peptide C.A.#4 by T cell clones; conditions: clones PB8-3, PB8-34, PB4-22, PB14-5, PB14-3; C.A.#4 10 μg/ml
Description: The antigenic peptide constituting the multi-epitope peptide C.A.#4 obtained in Example 6 was examined to determine if the antigenic peptide actually functions as a T cell epitope.
On a 96-well micro culture plate, a mixture of 5×10^4 cells of the autologous B cell line previously treated with mitomycin C and 2×10^4 cells of the T cell clone was incubated for 2 days in 0.2 ml 15% serum-supplemented RPMI-1640 medium, together with, as an antigen, either 50 μg/ml of Cry j 1 and 2 μg/ml of Cry j 2, each antigenic peptide constituting the multi-epitope peptide C.A.#4 or 10 μg/ml C.A.#4 multi-epitope peptide produced by gene expression. After 0.5 μCi [^3H] thymidine was added to the medium, incubation was continued for a further 16 hours. After the cells were harvested on a glass filter using a cell harvester, the level of [^3H] thymidine taken up into the cells was determined using a liquid scintillation counter.

[3] = tested on: T cell lines (PJ, PR, PB) and T cell clones (PB 8-3, PB 8-2, PB 9-39); test: Determination of core sequence of Cry j 1 peptide No. 22 with T cell lines and clones
Excerpt: To determine the minimum amino acid sequence (core) of the Cry j 1 peptide No. 22 (p106-120) necessary for the T cell line and T cell clone proliferation response, one amino acid residue each was deleted from the N and C terminals of this peptide as shown in FIG. 15 to prepare eleven peptides, i.e., p107-120 (p22-2), P108-120 (p22-3), p109-120 (p22-4), p110-120 (p22-5), p111-120 (p22-6), p106-119 (p22-7), p106-118 (p22-8), p106-117 (p22-9), p106-116 (p22-10), and p106-115 (p22-11) using a peptide synthesizer (PSSM-8, manufactured by Shimadzu Seisakusho Ltd.). The T cell lines (PJ, PR, PB) derived from three patients with cedar pollinosis and which react with Cry j 1 Peptide No. 22, p106-120, and the T cell clones (PB 8-3, PB 8-2, PB 9-39) from one of the patients were examined for the reactivity with these 11 peptides in the same manner as in Examples 1 and 2. […] The results reveal that the p106-120 core sequence consists of nine residues of “FIKRVSNVI”(SEQ ID NO. 7) (the nine residues are designated as Cry j 1 #22 core).

[4] = tested on: Cry j 1-specific T cell line; test: Reactivity of Cry j 1-specific T cell line; conditions: from patients with cedar pollinosis
Excerpt: (§1) Two peptides (Cha o 1 #8-Cry j 1 #22 core, Cha o 1 #32-Cry j 1 #22 core) were synthesized by joining Peptide No. 8 (p71-90: […] SEQ ID NO. 11) which is a T cell epitope of hinoki pollen allergen Cha o 1 (Japanese Patent Application N. Hei. 8-15327), or Peptide No. 32 ([…]: […] SEQ ID NO. 12) to Cry j 1 #22 core sequence “FIKRVSNVI”(SEQ ID NO. 7) obtained in Example 14 using a peptide synthesizer (PSSM-8, Shimadzu Seisakusho Ltd.). An RR sequence was inserted between Cha o 1 #8 and Cry j 1 #22 core and between Cha o 1 #32 and Cry j 1 #22 core, that is, Cha o 1 #8-Cry j 1 #22 core (SEQ NO: 4) and Cha o 1 #32-Cry j 1 #22 core (SEQ NO: 5).
(§2) A Cry j 1-specific T cell line and a Cha o 1-specific T cell line were prepared from the patients with cedar pollinosis and hinoki pollinosis, respectively. […] However, these T cell lines all react with the multi-epitope peptide of SEQ NO: 4 and with the multi-epitope peptide of SEQ NO: 5.

[5] = tested on: Cha o 1-specific T cell line; test: Reactivity of Cha o 1-specific T cell line; conditions: from patients with hinoki pollinosis
Excerpt: as §1, §2

Substance | positivity index [1] | recognition of peptide by allergen-specific T cell clones [2] | peptide-presenting restriction molecule (HLA class II molecules) | proliferation response of the T cell clones recognizing the respective epitope (T cell clones) | proliferation response ([3]; one T cell line and T cell clone) | proliferation response ([3]; two T cell lines (PJ, PB) and two T cell clones (PB 8-2, PB 9-39)) | reactivity of Cry j 1-specific T cell line [4] | reactivity of Cha o 1-specific T cell line [5]
Cry j 1 Peptide No. 22: Cry j 1 overlapping peptide No. 22, p106-120 (PCVFIKRVSNVIIHG; Figure 15, p22-1.; listed as Cryptomeria japonica) | 578 | recognized | DRB5*0101 | react well | did not show any proliferation response | proliferated | reacts with | does not react with
KSMKVTVAFNQFGPN [Cry j 1 Peptide No. 43] | 679 | recognized | DPA1*0101-DPB1*0501 | react well | – | – | – | –
